Patent publication US8916561B2, “Substituted quinoxaline compounds for the inhibition of PASK” (BioEnergenix, LLC, priority 2011, dated 2014)

Columns and labels:
PASK (Invitrogen) = molecular target: T1, PASK (Invitrogen) (Homo sapiens, UniProt Q96RG2); test: PAS Kinase FRET Assay; assay type: biochemical; details: TR-FRET (665 nm/615 nm), Ulight-peptide substrate; read-out: IC50 Kinase Domain
T1 construct: IC50 Kinase Domain; purchased Invitrogen
Description: The aim of the FRET assay is to determine the inhibition potential of test compounds on targeted kinase. This assay platform provides a homogenous screening method for measuring kinase activity by quantitating the amount of phospho-substrate in solution following a kinase reaction.
In the presence of kinase and ATP, the Ulight-peptide is phosphorylated and captured by an anti-phospho-substrate antibody, which brings the Eu chelate donor and Ulight acceptor dyes into close proximity. Upon excitation at 340 nm, the Eu chelate transfers its energy to the Ulight dye, resulting in a fluorescent light emission at 665 nm.
Titration of kinase at 1 mM ATP was achieved via the following protocol. After making serial three-fold dilutions of PASK (Invitrogen) in reaction buffer across the plate; 5 μl of kinase dilution and 5 μl substrate/ATP mix were added to the wells of the white Optiplate-384 (PerkinElmer). The contents of the plate were incubated at RT for 1 h. The reaction was stopped by adding 5 μl of stop solution to each test well followed by mixing and incubation at RT for 10 minutes. 5 μl of detection mix (detection antibody diluted in detection butler) was added; the contents of the plate were mixed and then incubated in the dark for 1 hour at RT. The signal was recorded at TR-FRET mode (665 nm/615 nm), The results were graphed to calculate the EC50.
Titration of ATP at the EC50 concentration of kinase to determine ATP Km,app. was performed using the following method. After making serial dilutions of ATP (Invitrogen), 5 μl of ATP dilution and 5 μl substrate/kinase mix were added to the wells of the white Optiplate-384 (PerkinElmer). The contents of the plate were and incubated at RT for 1 h. The reaction was stopped by adding 5 μl of stop solution to each test well followed by mixing and incubation at RT for 10 minutes. 5 μl of detection mix (detection antibody diluted in detection buffer) was added; the contents of the plate were mixed and then incubated in the dark for 1 hour at RT. The signal was recorded at TR-FRET mode (665 nm/615 nm). The results were graphed to calculate the EC50 as the ATP Km,app.
Compound screening was done via the following method. 10 mM stock solution of test compound in DMSO was prepared by dissolving test compound in DMSO at RT for 1 hour, and then sonicating at 100% output for 8 minutes. If compound is not soluble under this condition, it was diluted to 3 mM. Kinase reaction buffer was prepared containing 10 mM MgCl2, 50 mM HEPES, 1 EGTA, 0.01% TWEEN-20, 2 mM WT. Serial dilutions of the test compounds were prepared at 4× final assay concentrations using Freedom EVO200® dispensing system as follows: 12×10^−5M, 4×10^−5 M, 1.33×10^−5M, 4.44×10^−6 M. 1.48×10^−6 M, 4.92×10^−7 M, 1.65×10^−7 M, […], 1.82×10^−8 M, 6.09×10^−9, 2.03×10^−9 M. Test compounds (2.5 μl at 4× the final assay concentration) was added to wells using Freedom EVO200® dispensing system. As a positive control, 2.5 μl of positive compound was added to assay wells, and 2.5 μl of DMSO to assay wells as vehicle control. Kinase solution was prepared in reaction buffer at 2× final assay concentration. Kinase solution (5 μl) was added to each well of the assay plate. The substrate and ATP solution was prepared in kinase reaction buffer at 4× final assay concentration. The kinase reaction was started by adding 2.5 μl of substrate+ATP mix solution to each well of the assay plate. The plate is mixed on a plate shaker; then covered and allowed to react for 2 hours in the dark at 25° C. without shaking. The reaction was stopped by adding 5 μl of stop solution to each test well followed by mixing and incubation at RT for 10 minutes in the dark. 5 μl of detection mix (detection antibody diluted in detection buffer) was added; the contents of the plate were mixed and then incubated in the dark for 1 hour at RT. The signal was recorded at TR-FRET mode (665 nm/615 nm).

hPASK [1] = molecular target: T2, hPASK (Homo sapiens, UniProt Q96RG2); test: PAS Kinase Luminescence Assay (Kinase-Glo); assay type: biochemical; parameters: IC50 Kinase Domain; host or cells: insect cells; details: MBP substrate, read-out: IC50 Kinase Domain
Experimental: One assay for purified hPASK activity utilizes the Kinase-Glo Luminescent Kinase Assay (Promega), which quantifies the amount of ATP remaining in solution following kinase reaction. The assay is carried out in a 96-well plate format and is performed by adding a volume of Kinase-Glo Reagent (Promega, catalog #V3771) equal to the volume of solution in the well of a completed kinase reaction. Kinase-Glo reagent contains Luciferase and its substrate. After addition to a kinase reaction it allows to measure luminescence. The amount of ATP left in solution at the time of Kinase-Glo Plus addition is directly proportional to the luminescence that is measured in each well, and inversely correlated with kinase activity.
Purified hPASK from insect cells (0.02 μg) is added to a 50 μL reaction mix containing 40 mM HEPES (pH 7.0), 100 mM KCl, 5 mM MgCl2, 1 mM DTT and 1 μg of MBP protein. Inhibitory compounds are then added and the mixture is incubated for 10 min at 25° C. before adding 5 μL of ATP (at desired concentration). The reaction is allowed to proceed at 25° C. for 1 hour before adding 50 μL of Kinase-Glo reagent. The luminescence is measured as soon as 10 minutes after Kinase-Glo reagent is added.
Target sequence in this assay (Q96RG2 999-1251 limits assumed): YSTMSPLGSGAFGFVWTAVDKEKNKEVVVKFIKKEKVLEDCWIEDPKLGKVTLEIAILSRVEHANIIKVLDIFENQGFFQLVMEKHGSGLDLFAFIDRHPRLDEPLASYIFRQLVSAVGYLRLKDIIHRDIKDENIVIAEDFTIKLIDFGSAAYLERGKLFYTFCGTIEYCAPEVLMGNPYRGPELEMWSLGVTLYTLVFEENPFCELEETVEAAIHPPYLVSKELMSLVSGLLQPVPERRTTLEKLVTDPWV

PASK = molecular target: T3, PASK (UniProt #Q96RG2; human recombinant N-terminal GST tagged construct, residues 879-1323) (Homo sapiens, UniProt Q96RG2); test: PASK ATP Radiochemical Assay; assay type: biochemical; details: 33P-ATP radiochemical assay, Myelin Basic Protein substrate; read-out: IC50 Kinase Domain
T3 construct: human recombinant N-terminal GST tagged construct, residues 879-1323; GST (N); host or cells: insect cells
T3 sequence (Q96RG2 879-1323, stated change not applied): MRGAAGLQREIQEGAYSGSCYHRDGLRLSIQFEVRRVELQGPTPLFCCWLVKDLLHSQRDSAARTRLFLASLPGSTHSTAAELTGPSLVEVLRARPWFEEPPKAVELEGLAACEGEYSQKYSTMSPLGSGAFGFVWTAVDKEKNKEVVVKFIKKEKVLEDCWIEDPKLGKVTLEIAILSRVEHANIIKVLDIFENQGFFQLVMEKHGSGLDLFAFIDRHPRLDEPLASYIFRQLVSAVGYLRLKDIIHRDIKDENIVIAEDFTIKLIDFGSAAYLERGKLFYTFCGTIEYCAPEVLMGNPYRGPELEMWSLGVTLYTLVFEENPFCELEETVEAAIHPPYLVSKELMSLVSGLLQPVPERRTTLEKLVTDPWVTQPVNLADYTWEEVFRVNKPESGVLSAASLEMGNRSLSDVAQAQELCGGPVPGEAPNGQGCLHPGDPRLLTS
Experimental: Purified PASK (UniProt #Q96RG2; human recombinant N-terminal GST tagged construct, residues 879-1323) from insect cells (final concentration 5 nM) is added to freshly prepared Base Reaction Buffer containing 20 mM HEPES (pH 7.5), 10 mM MgCl2, 1 mM EGTA, 0.02% Brij35, 0.02 mg/ml BSA, 0.1 mM Na3VO4, 2 mM DTT, 1% DMSO and Myelin Basic Protein (20 μM final). Test compounds in DMSO are then added and the mixture, followed by delivery of ^33P-ATP (specific activity 0.01 μCi/μl final) to initiate the reaction. The kinase reaction is incubated for 120 min at room temperature. The entire reaction mixture is washed through onto a P81 Phosphocellulose paper and washed three times for 10 minutes in 75 mM phosphoric acid and once in methanol prior to drying and scintillation counting.

hPASK [2] = molecular target: T2, hPASK; test: Cell assay for hPASK activity, phospho-AKT substrate antibody; assay type: cell-based; parameters: expressed in transfected cells; host or cells: HEK293T; details: HEK293T cells transfected with V5-tagged PASK, phospho-AKT substrate antibody Western blot
Experimental: The assay applies the ability of PASK to autophoshorylate in vivo on the sequence recognized by phospho-Akt substrate antibody (110B7E, Cell Signaling). Cell line HEK293T is transfected with vector (pcDNA 3.1-PASK) expressing V5-tagged wilde-type of PASK. Transfected cells are then treated with putative inhibitors of PASK. Twenty-four hours post treatment cells are lysed and PASK is separated from cellular proteins by immunoprecipitation with V5-conjugated beads (Sigma). PASK is released from immunocomlexes, separated on the SDS-PAGE gel and transferred on nitrocellulose membrane. Fraction of PASK phosphorylated on phospho-AKT Substrate site(s) is determined by probing with phospho-AKT antibody and normalized to total PASK level present in the same immunoprecipitates. We have shown the correlation between phosphorylation of phospho-AKT Substrate sequence and inhibition of PASK activity in vivo.
HEK293T cells are maintained and propagated in 10 cm dish in 10 ml of DMEM/10% FBS, split and re-seeded in 6 well plate (10^6 cells/well) in 2 ml of DMEM/10% FBS. Cells are transfected 18 hours post plating with lug of construct expressing wild-type of hPASK using lipofectamine 2000 according to the manufacturers protocol (Invitrogen). Cells expressing PASK are treated either with DMSO or PASK inhibitors. […] Intensities of the bands are quantitated and data normalized.
Target sequence in this assay (Q96RG2 whole entry, the tested form may be a part): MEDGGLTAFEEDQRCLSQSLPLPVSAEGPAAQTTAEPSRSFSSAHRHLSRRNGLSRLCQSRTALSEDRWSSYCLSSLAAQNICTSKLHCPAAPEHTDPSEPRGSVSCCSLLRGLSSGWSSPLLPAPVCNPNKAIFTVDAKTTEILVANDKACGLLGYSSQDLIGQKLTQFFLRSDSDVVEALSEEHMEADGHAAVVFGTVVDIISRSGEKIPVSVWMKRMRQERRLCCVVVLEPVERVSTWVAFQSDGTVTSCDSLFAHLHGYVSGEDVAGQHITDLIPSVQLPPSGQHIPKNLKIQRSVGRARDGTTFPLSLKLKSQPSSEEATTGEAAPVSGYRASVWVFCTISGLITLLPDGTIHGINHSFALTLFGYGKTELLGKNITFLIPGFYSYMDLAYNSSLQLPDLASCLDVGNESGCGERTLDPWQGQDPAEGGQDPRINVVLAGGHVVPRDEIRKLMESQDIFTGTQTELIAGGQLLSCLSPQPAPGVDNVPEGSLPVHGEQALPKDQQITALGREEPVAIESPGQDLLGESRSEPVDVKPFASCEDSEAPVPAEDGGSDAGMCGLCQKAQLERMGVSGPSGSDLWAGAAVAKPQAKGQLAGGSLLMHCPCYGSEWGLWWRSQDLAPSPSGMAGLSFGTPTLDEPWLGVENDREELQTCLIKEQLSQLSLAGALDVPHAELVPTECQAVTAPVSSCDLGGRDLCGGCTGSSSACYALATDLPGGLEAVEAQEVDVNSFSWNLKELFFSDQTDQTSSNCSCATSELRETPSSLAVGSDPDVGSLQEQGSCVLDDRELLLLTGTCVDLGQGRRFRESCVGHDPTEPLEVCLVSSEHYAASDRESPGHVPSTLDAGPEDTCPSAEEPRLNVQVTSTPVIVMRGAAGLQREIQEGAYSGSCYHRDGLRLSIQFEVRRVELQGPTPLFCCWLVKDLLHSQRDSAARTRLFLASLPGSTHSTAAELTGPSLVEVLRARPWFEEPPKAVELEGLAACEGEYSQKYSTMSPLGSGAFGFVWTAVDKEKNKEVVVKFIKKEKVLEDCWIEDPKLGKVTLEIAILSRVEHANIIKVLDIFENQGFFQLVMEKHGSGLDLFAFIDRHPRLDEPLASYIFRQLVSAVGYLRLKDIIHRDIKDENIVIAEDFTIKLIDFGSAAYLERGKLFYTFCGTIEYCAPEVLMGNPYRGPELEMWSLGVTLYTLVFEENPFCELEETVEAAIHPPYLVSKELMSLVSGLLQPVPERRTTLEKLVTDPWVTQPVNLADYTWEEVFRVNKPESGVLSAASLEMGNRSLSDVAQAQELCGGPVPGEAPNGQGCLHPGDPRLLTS

T1 sequence (Q96RG2 999-1251 limits assumed): as the sequence (Q96RG2 999-1251 limits assumed) above

SMILES	IC50 (PASK (Invitrogen))	IC50 (hPASK [1])	IC50 (PASK)	IC50 (hPASK [2])
Cc1[nH]c2ccc(-c3nc4ccc(-c5nnn[nH]5)cc4nc3N(C)C(C)C)cc2c1C(=O)C(F)(F)F [Example 24, 2,2,2-Trifluoro-1-(5-(3-(isopropyl(methyl)amino)-6-(1H-tetrazol-5-yl)quinoxalin-2-yl)-2-methyl-1H-indol-3-yl)ethanone]	≤ 10 µM			
CC(C)N(C)c1nc2cc(C(N)=O)ccc2nc1-c1ccc(F)cc1 [Example 1, 2-(4-Fluorophenyl)-3-(isopropyl(methyl)amino)quinoxaline-6-carboxamide]	≤ 10 µM		≤ 10 µM	≤ 10 µM
CC[C@@H](C)N(C)c1nc2cc(-c3nnn[nH]3)ccc2nc1-c1ccc(F)cc1 [Example 30, (R)—N-sec-Butyl-3-(4-fluorophenyl)-N-methyl-7-(1H-tetrazol-5-yl)quinoxalin-2-amine]	≤ 10 µM			
C[C@H]1CCCN1c1nc2cc(-c3nn[nH]n3)ccc2nc1-c1ccc(F)cc1 [Example 29, (S)-2-(4-Fluorophenyl)-3-(2-methylpyrrolidin-1-yl)-6-(2H-tetrazol-5-yl)quinoxaline]	≤ 10 µM		≤ 10 µM	
CC(C)N(C)c1nc2cc(-c3nnn[nH]3)ccc2nc1-c1ccc2[nH]ncc2c1 [Example 31, 3-(1H-Indazol-5-yl)-N-methyl-N-(propan-2-yl)-7-(1H-tetrazol-5-yl)quinoxalin-2-amine]	≤ 10 µM			
CCc1ccc(-c2nc3ccc(-c4nnn[nH]4)cc3nc2-c2ccc(CC)cc2)cc1 [Example 27, 2,3-Bis(4-ethylphenyl)-6-(1H-tetrazol-5-yl)quinoxaline]			≤ 10 µM	
Fc1ccc(-c2nc3ccc(-c4nnn[nH]4)cc3nc2-c2ccc(F)cc2)cc1 [Example 25, 2,3-Bis(4-fluorophenyl)-6-(1H-tetrazol-5-yl) quinoxaline]			≤ 10 µM	
CC(C)N(C)c1nc2cc(-c3nn[nH]n3)ccc2nc1-c1ccc(F)cc1 [Example 28, 3-(4-Fluorophenyl)-N-isopropyl-N-methyl-7-(2H-tetrazol-5-yl)quinoxalin-2-amine]	≤ 10 µM		≤ 10 µM	
COc1ccc(-c2nc3ccc(-c4nnn[nH]4)cc3nc2-c2ccc(OC)cc2)cc1 [Example 26, 2,3-Bis(4-methoxyphenyl)-6-(1H-tetrazol-5-yl)quinoxaline]	≤ 10 µM		≤ 10 µM	

Second part, the compound after the results:

IC50 (PASK (Invitrogen))	IC50 (hPASK [1])	IC50 (PASK)	IC50 (hPASK [2])	SMILES
≤ 10 µM				COc1ccc(-c2nc3ccc(S(=O)(=O)O)cc3nc2-c2ccc(OC)cc2)cc1 [Example 38, 2,3-Bis(4-methoxyphenyl)quinoxaline-6-sulfonic acid]
	> 10 µM			CNS(=O)(=O)c1ccc2nc(-c3ccc(OC)cc3)c(-c3ccc(OC)cc3)nc2c1 [Example 36, 2,3-Bis(4-methoxyphenyl)-N-methylquinoxaline-6-sulfonamide]
≤ 10 µM		≤ 10 µM		Cc1cc2cc(-c3nc4ccc(-c5nnn[nH]5)cc4nc3N(C)C(C)C)ccc2[nH]1 [Example 32, N-Isopropyl-N-methyl-3-(2-methyl-1H-indol-5-yl)-7-(1H-tetrazol-5-yl)quinoxalin-2-amine]
	≤ 10 µM			COc1ccc(-c2nc3ccc(S(N)(=O)=O)cc3nc2-c2ccc(OC)cc2)cc1 [Example 35, 2,3-Bis(4-methoxyphenyl)quinoxaline-6-sulfonamide]
	≤ 10 µM			COc1ccc(-c2nc3ccc(S(=O)(=O)N4CCOCC4)cc3nc2-c2ccc(OC)cc2)cc1 [Example 37, 4-(2,3-Bis(4-methoxyphenyl)quinoxalin-6-ylsulfonyl)morpholine]
	≤ 10 µM	≤ 10 µM		COc1ccc(-c2nc3ccc(NS(C)(=O)=O)cc3nc2-c2ccc(OC)cc2)cc1 [Example 34, N-(2,3-Bis(4-methoxyphenyl)quinoxalin-6-yl)methanesulfonamide]
≤ 10 µM				CC(C)N(C)c1nc2cc(-c3nnn[nH]3)ccc2nc1-c1cc2cc(F)ccc2o1 [Example 33, 3-(5-Fluorobenzofuran-2-yl)-N-methyl-N-(propan-2-yl)-7-(1H-tetrazol-5-yl)quinoxalin-2-amine]
